Data as given in the supplement of paper PMC10307832.

How the values were obtained:
Experiment in all cases: relative viability (nuclei count vs DMSO), 5 days (fraction); higher = more cells survive
[1] = compound: Cn1cc(-c2cnn3c(N)c(Br)c([C@@H]4CCCNC4)nc23)cn1 + CC(C)C[C@H](NC(=O)[C@H](Cc1ccccc1)NC(=O)c1cnccn1)B(O)O [Bortezomib] (partner 0.002 µM)
How it was run: (§1)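 Relative viability divides the nuclei count in treated wells by that in vehicle wells. Lung cancer cell lines were seeded in 1536-well plates, dosed by pin tool the next day, and fixed and stained after 5 days in one step with final 0.05% Triton X-100, 1% formaldehyde and 1 ug/ml Hoechst. Dosing was a single drug or a fixed anchor-drug dose plus five library-drug doses (not always all listed) in √10 steps, and values are medians of duplicate plates imaged at 4×.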

[2] = compound: Cn1cc(-c2cnn3c(N)c(Br)c([C@@H]4CCCNC4)nc23)cn1 + CS(=O)(=O)CCNCc1ccc(-c2ccc3ncnc(Nc4ccc(OCc5cccc(F)c5)c(Cl)c4)c3c2)o1 [Lapatinib] (partner 2 µM)
How it was run: as §1

[3] = compound: Cn1cc(-c2cnn3c(N)c(Br)c([C@@H]4CCCNC4)nc23)cn1 + NC(=O)Nc1cc(-c2cccc(F)c2)sc1C(=O)N[C@H]1CCCNC1 [AZD7762] (partner 0.2 µM)
How it was run: as §1

[4] = compound: Cn1cc(-c2cnn3c(N)c(Br)c([C@@H]4CCCNC4)nc23)cn1 + Nc1ncn([C@H]2C[C@H](O)[C@@H](CO)O2)c(=O)n1 [Decitabine] (partner 2 µM)
How it was run: as §1

Row | Cell Line | relative viability ([1]; first compound 0.05 µM) | relative viability ([1]; first compound 0.1581 µM) | relative viability ([1]; first compound 0.5 µM) | relative viability ([1]; first compound 1.581 µM) | relative viability ([1]; first compound 5 µM) | relative viability ([2]; first compound 0.05 µM) | relative viability ([2]; first compound 0.1581 µM) | relative viability ([2]; first compound 0.5 µM) | relative viability ([2]; first compound 1.581 µM) | relative viability ([2]; first compound 5 µM) | relative viability ([3]; first compound 0.05 µM) | relative viability ([3]; first compound 0.1581 µM) | relative viability ([3]; first compound 0.5 µM) | relative viability ([3]; first compound 1.581 µM) | relative viability ([3]; first compound 5 µM) | relative viability ([4]; first compound 0.05 µM) | relative viability ([4]; first compound 0.1581 µM) | relative viability ([4]; first compound 0.5 µM) | relative viability ([4]; first compound 1.581 µM) | relative viability ([4]; first compound 5 µM)
1 | HCC-366 | 1.03 | 1.2 | 1.06 | 0.734 | 0.334 | 1.05 | 1.32 | 0.66 | 0.649 | 0.382 | 0.202 | 0.247 | 0.344 | 0.229 | 0.224 | 0.307 | 0.338 | 0.334 | 0.347 | 0.247
2 | HCC-827 | 0.919 | 1.03 | 1.18 | 1.1 | 1.01 | 0.234 | 0.197 | 0.196 | 0.178 | 0.152 | 0.183 | 0.188 | 0.193 | 0.211 | 0.17 | 0.34 | 0.38 | 0.339 | 0.361 | 0.305
3 | HOP-62 | 0.847 | 1.02 | 1.28 | 0.708 | 0.294 | 1.05 | 1.27 | 1.08 | 0.896 | 0.792 | 0.526 | 1.06 | 0.622 | 0.534 | 0.271 | 0.252 | 0.2 | 0.191 | 0.239 | 0.269
4 | LC-2-ad | 1.03 | 1.15 | 0.938 | 1.06 | 0.935 | 1.02 | 1.04 | 0.923 | 0.754 | 0.925 | 0.841 | 0.949 | 0.819 | 0.805 | 0.881 | 0.856 | 0.811 | 0.856 | 0.781 | 0.908
5 | LCLC-97TM1 | 0.318 | 0.546 | 0.626 | 0.333 | 0.204 | 0.86 | 1.3 | 0.976 | 0.915 | 0.774 | 0.296 | 0.367 | 0.264 | 0.217 | 0.222 | 0.22 | 0.297 | 0.222 | 0.278 | 0.295
6 | LOU-NH91 | 0.504 | 0.492 | 0.513 | 0.442 | 0.481 | 0.785 | 0.694 | 0.761 | 0.713 | 0.619 | 0.373 | 0.744 | 0.761 | 0.727 | 0.642 | 0.82 | 0.81 | 0.796 | 0.801 | 0.729
7 | LU99A | 1.16 | 1.25 | 1.05 | 1.14 | 0.679 | 1.04 | 1.11 | 0.998 | 0.858 | 0.611 | 0.371 | 0.392 | 0.304 | 0.264 | 0.224 | 0.912 | 0.92 | 0.875 | 0.822 | 1.01
8 | LXF-289 | 1.01 | 1.09 | 0.978 | 0.88 | 0.994 | 0.922 | 1.02 | 0.887 | 0.904 | 0.896 | 1.09 | 1.16 | 1.09 | 0.981 | 1.05 | 0.368 | 0.41 | 0.401 | 0.382 | 0.485
